Results published in patent publication US5962640A, “Methods for preparing novel dipeptide compounds or pharmacuetically acceptable salts thereof” (Japan Energy Corporation, priority 1995, dated 1999).
In brackets after ≈: the same amount, converted by molar mass.

What was measured:
Recombinant HIV protease = molecular target: T1, Recombinant HIV protease (Human immunodeficiency virus type 1 group M subtype B, UniProt P04585); assay: HIV protease inhibitory activity (cleavage of synthetic hepta-peptide, HPLC); type: biochemical; conditions: for inhibition at 5 µM: read-out: HIV protease inhibitory activity (%); for HIV protease inhibitory activity (%) / inhibition at 0.05 µM: 37° C., 60 min
T1 construct: Recombinant HIV protease
Method: Recombinant HIV protease (Biochemistry, 250 (9), 264 (1990)) and synthetic hepta-peptide (H-Ser-Gln-Asn-Tyr-Pro-Ile-Val-OH/trifluoroacetic acid salt) were used for assay of protease activity. Peptide fragment H-Pro-Ile-Val-OH formed by cleavage between -Tyr . . . Pro of said substrate after a reaction in the presence of various concentration of tested compound at 37° C. for 60 min. was determined by reversed phase HPLC and the inhibitory rate was calculated (referred to Japanese laid-open unexamined patent, No. 170722/1993).
The concentration of tested compound represents the final concentration thereof of the reaction mixture.

MT-4 cell line = assay: Cytotoxicity to non-infected MT-4 cell line, MTT method; type: cell-based; conditions: non-infected MT-4 cells, 5 day culture
Method: According to a test method which was already reported in publications (H.Nakashima et al., Antimicrob. Agents Chemother.36, 1249-1255 (1992), etc.,), anti-HIV activity was evaluated, by using MT-4 cell line and HTLV-IIIB virus, MT-4 cells (2.5×10^4 well, MOI:001) infected with said HTLV-IIIB virus just before the addition were into 96-well microtiter plate wherein each well contained various concentration of tested compound. At the same time, in order to investigate cytotoxicity of tested compounds to MT-4 cell line, non-infected MT-4 cell line was cultured in the presence of various kinds of tested compound. After 5 day culture at 37° C. in a CO2 incubator, the number of vial cells was counted by MTT method. […]

HTLV-IIIB virus = assay: Anti-HIV activity: protection of HTLV-IIIB infected MT-4 cells, MTT method; type: cell-based; conditions: MT-4 cells infected with HTLV-IIIB, 5 day culture
Method: The anti-HIV activity of the dipeptide compound of the present invention was evaluated as described below. That is, the inhibitory action of the compound on formation of HIV virus particles which infects T lymphocyte was evaluated by potency to prevent death of T lymphocyte accompanied by said virus infection.
According to a test method which was already reported in publications (H.Nakashima et al., Antimicrob. Agents Chemother.36, 1249-1255 (1992), etc.,), anti-HIV activity was evaluated, by using MT-4 cell line and HTLV-IIIB virus, MT-4 cells (2.5×10^4 well, MOI:001) infected with said HTLV-IIIB virus just before the addition were into 96-well microtiter plate wherein each well contained various concentration of tested compound. At the same time, in order to investigate cytotoxicity of tested compounds to MT-4 cell line, non-infected MT-4 cell line was cultured in the presence of various kinds of tested compound. After 5 day culture at 37° C. in a CO2 incubator, the number of vial cells was counted by MTT method.
Virus whose infectious value was 3.8×10^4 TCID 50/ml was used.

[1] = Pharmacokinetics in rats, intravenous or intraduodenal administration, plasma concentration; type: in vivo; conditions: 10.0 mg/kg
Method: Metabolic characteristics of the dipeptide compounds of the present invention was evaluated using rats. Tested compounds dissolved in vehicle was administered intraduodenally or intravenously. After administration, blood was taken and the concentration of residual tested compound in plasma was analyzed. The dosage of the tested compound was described in table 3.

| SMILES | inhibition at 5 µM (Recombinant HIV protease) [%] | inhibition at 0.05 µM (Recombinant HIV protease; concentration 50 nM (final)) [%] | further results |
| --- | --- | --- | --- |
| CC(C)(C)NC(=O)[C@@H]1CSCN1C(=O)[C@@H](O)[C@H](Cc1ccccc1)NC(=O)c1ccccc1 [Compound of example 1, (R)-N-tert-butyl-3-[(2S,3S)-2-hydroxy-3-[benzoyl]amino-4-phenylbutanoyl]-1,3-thiazolidine-4-carboxamide] | 52 |  |  |
| Cc1ccccc1C(=O)N[C@@H](Cc1ccccc1)[C@H](O)C(=O)N1CSC[C@H]1C(=O)NC(C)(C)C [Compound of example 2, (R)-N-tert-butyl-3-[(2S,3S)-2-hydroxy-3-[2-methylbenzoyl]amino-4-phenylbutanoyl]-1,3-thiazolidine-4-carboxamide] | 74.9 |  |  |
| CC(C)(C)NC(=O)[C@@H]1CSCN1C(=O)[C@@H](O)[C@H](Cc1ccccc1)NC(=O)c1cccc(O)c1 [Compound of example 6, (R)-N-tert-butyl-3-[(2S,3S)-2-hydroxy-3-[3-hydroxybenzoyl]amino-4-phenylbutanoyl]-1,3-thiazolidine-4-carboxamide] | 76 |  |  |
| CC(C)(C)NC(=O)[C@@H]1CSCN1C(=O)[C@@H](O)[C@H](Cc1ccccc1)NC(=O)c1ccc(O)cc1 [Compound of example 7, (R)-N-tert-butyl-3-[(2S,3S)-2-hydroxy-3-[4-hydroxybenzoyl]amino-4-phenylbutanoyl]-1,3-thiazolidine-4-carboxamide] | 62.2 |  |  |
| CC(C)(C)NC(=O)[C@@H]1CSCN1C(=O)[C@@H](O)[C@H](Cc1ccccc1)NC(=O)c1ccc(C(=O)O)cc1 [Compound of example 13, (R)-N-tert-butyl-3-[(2S,3S)-2-hydroxy-3-[4-carboxybenzoyl]amino-4-phenylbutanoyl]-1,3-thiazolidine-4-carboxamide] | 70.4 |  |  |
| Cc1c(O)cccc1C(=O)N[C@@H](Cc1ccccc1)[C@H](O)C(=O)N1CCC[C@H]1C(=O)NC(C)(C)C [Compound of example 24, N-tert-butyl-1-[(2S,3S)-2-hydroxy-3-N-[3-hydroxy-2-methylbenzoyl]amino-4-phenylbutanoyl]-L-prolinamide] |  |  | HIV protease inhibitory activity (%) (Recombinant HIV protease; concentration 50 nM (final)): 17.6%; HIV protease inhibitory activity (%) (Recombinant HIV protease; concentration 5 μM (final)): 94.2%; Cytotoxicity CC50 (MT-4 cell line): 231 µg/mL; Anti-HIV activity EC50 (HTLV-IIIB virus): 1.97 µg/mL |
| Cc1c(N)cccc1C(=O)N[C@@H](Cc1ccccc1)[C@H](O)C(=O)N1CSC[C@H]1C(=O)NC(C)(C)C [Compound of example 25, (R)-N-tert-butyl-3-[(2S,3S)-2-hydroxy-3-[3-amino-2-methylbenzoyl]amino-4-phenylbutanoyl]-1,3-thiazolidine-4-carboxamide] | 81.3 |  |  |
| Cc1cccc(C(=O)N[C@@H](Cc2ccccc2)[C@H](O)C(=O)N2CSC[C@H]2C(=O)NC(C)(C)C)c1C [Compound of example 26, (R)-N-tert-butyl-3-[(2S,3S)-2-hydroxy-3-(2,3-dimethylbenzoyl]amino-4-phenylbutanoyl]-1,3-thiazolidine-4-carboxamide] | 77.9 |  |  |
| Cc1c(O)cccc1C(=O)N[C@@H](Cc1ccccc1)[C@H](O)C(=O)N1CS(=O)(=O)C[C@H]1C(=O)NC(C)(C)C [Compound of example 28, (R)-N-tert-butyl-3-[(2S,3S)-2-hydroxy-3-(2-methyl-3-hydroxybenzoyl)amino-4-phenylbutanoyl]-1,3-thiazolidine-1,1-dioxide-4-carboxamide] |  |  | HIV protease inhibitory activity (%) (Recombinant HIV protease; concentration 50 nM (final)): 23.8%; HIV protease inhibitory activity (%) (Recombinant HIV protease; concentration 5 μM (final)): 96.1%; Cytotoxicity CC50 (MT-4 cell line): 146 µg/mL; Anti-HIV activity EC50 (HTLV-IIIB virus): 1.80 µg/mL |
| CC(C)(C)NC(=O)[C@@H]1CSCN1C(=O)[C@@H](O)[C@H](Cc1ccccc1)NC(=O)c1cc(O)cc(O)c1 [Compound of example 29, (R)-N-tert-butyl-3-[(2S,3S)-2-hydroxy-3-(3,5-dihydroxybenzoyl)amino-4-phenylbutanoyl]-1,3-thiazolidine-4-carboxamide] | 75.6 |  |  |
| Cc1c(O)cccc1C(=O)N[C@@H](Cc1ccccc1)[C@H](O)C(=O)N1CO[C@H](C)[C@H]1C(=O)NC(C)(C)C [Compound of example 30, (4S,5R)-N-tert-butyl-3-[(2S,3S)-2-hydroxy-3-(2-methyl-3-hydroxybenzoyl)amino-4-phenylbutanoyl]-5-methyl-1,3-oxazolidine-4-carboxamide] | 96.9 | 21.5 | Cytotoxicity CC50 (MT-4 cell line): 191 µg/mL; EC50 (HTLV-IIIB virus; Human immunodeficiency virus 1, MT4, 120 h): 1.4 µg/mL (≈ 2.81 µM) |
| CCCc1c(O)cccc1C(=O)N[C@@H](Cc1ccccc1)[C@H](O)C(=O)N1CSC[C@H]1C(=O)NC(C)(C)C [Compound of example 32, (R)-N-tert-butyl-3-[(2S,3S)-2-hydroxy-3-(3-hydroxy-2-propylbenzoyl)amino-4-phenylbutanoyl]-1,3-thiazolidine-4-carboxamide] | 92 | 17.2 |  |
| Cc1c(N)cc(N)cc1C(=O)N[C@@H](Cc1ccccc1)[C@H](O)C(=O)N1CSC[C@H]1C(=O)NC(C)(C)C [Compound of example 33, (R)-N-tert-butyl-3-[(2S,3S)-2-hydroxy-3-(3,5-diamino-2-methylbenzoyl)amino-4-phenylbutanoyl]-1,3-thiazolidine-4-carboxamide] | 85.2 |  |  |
| Cc1ccccc1CNC(=O)[C@H]1N(C(=O)[C@@H](O)[C@H](Cc2ccccc2)NC(=O)c2cccc(O)c2C)CSC1(C)C [Compound of example 37, (R)-N-(2-methylbenzyl)-3-[(2S,3S)-3-(3-hydroxy-2-methylbenzoyl)amino-2-hydroxy-4-phenylbutanoyl]-5,5-dimethyl-1,3-thiazolidine-4-carboxamide] | > 99 | 95.8 | AUC ([1]; i.d.): 55 µg/mL/min; AUC ([1]; i.v.): 131 µg/mL/min |
| CCCCNC(=O)[C@@H]1CSCN1C(=O)[C@@H](O)[C@H](Cc1ccccc1)NC(=O)c1cccc(O)c1C [Compound of example 39, (R)-N-n-butyl-3-[(2S,3S)-3-(3-hydroxy-2-methylbenzoyl)amino-2-hydroxy-4-phenylbutanoyl]-1,3-thiazolidine-4-carboxamide] | 92 | 13.4 |  |
| Cc1ccccc1CNC(=O)[C@H]1NC[C@@H](Cl)C1C(=O)[C@@H](O)[C@H](Cc1ccccc1)NC(=O)c1cccc(O)c1C (stereo partly drawn) [Compound of example 41, (2S,4S)-N-(2-methylbenzyl)-3-[(2S,3S)-3-(3-hydroxy-2-methylbenzoyl)amino-2-hydroxy-4-phenylbutanoyl]-4-chloropyrrolidine-2-carboxamide] | 97.7 | 76.8 |  |
| Cc1c(O)cccc1C(=O)N[C@@H](Cc1ccccc1)[C@H](O)C(=O)N1CSC[C@H]1C(=O)NCc1ccccc1Cl [Compound of example 42, (R)-N-(2-chlorobenzyl)-3-[(2S,3S)-3-(3-hydroxy-2-methylbenzoyl)amino-2-hydroxy-4-phenylbutanoyl]-1,3-thiazolidine-4-carboxamide] | 97.4 | 51.2 |  |
| Cc1cccc(C)c1CNC(=O)[C@@H]1CSCN1C(=O)[C@@H](O)[C@H](Cc1ccccc1)NC(=O)c1cccc(O)c1C [Compound of example 44, (R)-N-(2,6-dimethylbenzyl)-3-[(2S,3S)-3-(3-hydroxy-2-methylbenzoyl)amino-2-hydroxy-4-phenylbutanoyl]-1,3-thiazolidine-4-carboxamide] | 97.9 | 75.2 |  |
| Cc1c(O)cccc1C(=O)N[C@@H](Cc1ccccc1)[C@H](O)C(=O)N1CSC(C)(C)[C@H]1C(=O)NCc1ccccc1Cl [Compound of example 45, (R)-N-(2-chlorobenzyl)-3-[(2S,3S)-3-(3-hydroxy-2-methylbenzoyl)amino-2-hydroxy-4-phenylbutanoyl]-5,5-dimethylthiazolidine-4-carboxamide] | > 99 | 94.5 |  |
